Entries after “also recorded” stand apart in the source; their conditions may differ.
Columns and labels:
hph-1 mice = assay: Amount of serotonin in brain of hph-1 mice after oral administration; type: in vivo, mouse; conditions: oral 20 mg/kg twice (2 h apart), brain 6 hours after first administration, FIG. 6
Experimental: The mice used were those of “hph-1” which were provided by Dr. […] (Institute of Metabolic Disease, Baylor University Medical Center, Dallas, Tex. 75226, USA). The mice are characterized as being defective in biosynthesis functions of tetrahydrobiopterin, with the level of tetrahydrobiopterin in the brain being from 40 to 50% as compared with ordinary mice. The mice were bred in a dark place for 12 hours and also in a light place for 12 hours and fed ad libitum with a diet (“MM-3” made by Funabashi Farm Co., Ltd.) and sterilized tap water as drinking water. An amount of serotonin was measured by dissolving sepiapterin or tetrahydrobiopterin in 0.01 M hydrochloric acid, thereafter administering orally each of the resultants at 20 mg/kg to the mice, giving another oral administration at the same dose two hours thereafter, and excised the brains from each mouse six hours after the first administration (n=7 in a group treated with sepiapterin, and n=8 in a group treated with tetrahydrobiopterin). […] In a control group, measurement was made similarly by orally administering 0.01M hydrochloric acid.

NZB mice = assay: Forced swim test in mice; type: in vivo, mouse; conditions: intraperitoneal single dose 10 mg/kg, test after 40 minutes, five-minute swimming, FIG. 7
Experimental: In Example 6, the mice were subjected to a forced swim test after administration of sepiapterin. The forced swim test of the mice is a test method for evaluating antidepressant effects, and length of “immobile” time is a criterion of depression. Evaluation is made in such a manner that the shorter the “immobile” time is, the greater the antidepressant effects are. The mice used were NZB mice purchased from. Japan SLC, Inc (7-week old males). The mice were maintained in a dark place for 12 hours and in a light place for 12 hours and fed ad libitum with a diet (“MM-3” made by Funabashi Farm Co., Ltd.) and sterilized tap water as drinking water, except when they were constrained in an experiment. The mice are characterized in that they are more likely to develop an auto-immune disease with advancement of age. […] The mice which had been subjected to 15-minute preliminary swimming without administration of a drug, etc., on the previous day were used in the experiment. The mice were intraperitoneally administered tetrahydrobiopterin (n=7) or sepiapterin (n=5) at a single dose of 10 mg/kg and subjected to a forced swim test after 40 minutes to measure “immobile” time. The test was conducted under dim light by using a 15 cm-across and 15 cm-deep water tank kept at a temperature of 22° C. “Immobile” time was measured by calculating an added value of “immobile” time during five-minute-swimming. […]

RBL2H3 cells = assay: Total amount of biopterin in RBL2H3 cells after addition to culture medium; type: cell-based; conditions: 100 μM added, 0-180 min, FIG. 2B
Experimental: (§1) In Example 1, where PC12 cells and RBL2H3 cells were used as aromatic monoamine synthesizing cells and sepiapterin was added to a culture medium, evaluation was made for a total amount of biopterin in the cells (a total amount of tetrahydrobiopterin, and its oxidant, dihydrobiopterin and biopterin, the same shall apply hereinafter).
(§2) The PC12 cells are cultured cells having properties of a neuron and it is known that they synthesize dopamine, noradrenaline and adrenaline, with tetrahydrobiopterin used as a coenzyme. The RBL2H3 cells are cultured cells having properties of a mast cell and it is known that they synthesize serotonin, with tetrahydrobiopterin used as a coenzyme. […]
(§3) A total amount of biopterin in the cells was measured by using a system of high performance liquid chromatography/fluorescence detection (HPLC/FD) according to the Fukusima-Nixon method (refer to Non-Patent Document 8).
(§4) A principle of the Fukushima-Nixon method is as follows. Upon oxidation with iodine under strong acid or alkaline conditions, tetrahydrobiopterin is quantitatively oxidized into oxidized-form biopterin under acid conditions and oxidized into oxidized-form pterin in which a side chain in the 6th-class position is removed under alkaline conditions. […] The oxidized-form biopterin and the oxidized-form pterin have strong natural fluorescent characteristics (excitation: 350 nm, fluorescence: 450 nm). […]

SD rats = assay: Amounts of tetrahydrobiopterin, serotonin and 5-hydroxyindoleacetic acid in rat brain after oral administration; type: in vivo; conditions: 0-8 hours after administration; for amount of tetrahydrobiopterin in the brain: FIG. 5A
Experimental: In Example 4, rats were used to measure amounts of tetrahydrobiopterin, serotonin and 5-hydroxyindoleacetic acid in the brain on administration of sepiapterin. Rats used were SD rats (7-8 week old, males) purchased from Japan SLC, Inc. The rats were kept in a dark place for 12 hours and in a light place for 12 hours and fed ad libitum with a diet (“MM-3” made by Funabashi Farm Co., Ltd.) and sterilized tap water as drinking water. Sepiapterin or tetrahydrobiopterin was dissolved in 10 mM hydrochloric acid, the resultant of which was orally administered to the rats (n=6) under diethylether anesthesia. After 1, 1.5, 2, 3, 4, 6 and 8 hours, the brains were excised under pentobarbital sodium anesthesia (pentobarbital was intraperitoneally administered at 40 mg/kg five minutes before), and the brain was divided into two portions at the median line to obtain left and right brain samples. Rats not treated with sepiapterin or tetrahydrobiopterin were used as samples at 0 hours after administration according to the same procedures. […] Amounts of serotonin and 5-hydroxyindoleacetic acid in the brain were calculated by adding 3.5 times the volume of 1.43% ascorbic acid-containing 100 mM hydrochloric acid which contains N-methyl serotonin as an internal standard to a right brain sample, homogenizing brain tissues, adding […] (final concentration of 5.5%) thereto, ice-cooling the resultant for removing protein and treating a supernatant thereof in a system of high performance liquid chromatography/fluorescence detection (HPLC/FD), (refer to Non-Patent Document 9). In the high performance liquid chromatography, as with Example 1, etc., “Fine-SIL-C18-5T (made by JASCO Corporation)” was used as a column. […] In the system of high performance liquid chromatography/fluorescence detection (HPLC/FD), 5-hydroxytryptophan (5HTP), serotonin, N-methyl serotonin, tryptophan and 5-hydroxyindoleacetic acid are eluted in the above order, thus making it possible to determine quantitatively these substances at the same time.

PC12 cells = assay: Total amount of biopterin in PC12 cells after addition to culture medium; type: cell-based; conditions: 100 μM added, 0-180 min, FIG. 2A
Experimental: as §1, §2, §3, §4

amount of tetrahydrobiopterin in the brain (SD rats)	Structure (SMILES)	amount of serotonin in the brain (hph-1 mice)	"immobile" time in forced swim test (NZB mice)	change in the total amount of biopterin in the cells (RBL2H3 cells)	amount of serotonin in the brain (SD rats; FIG. 5B)	change in the total amount of biopterin in the cells (PC12 cells)
significant increase	C[C@H](O)C(=O)C1=Nc2c(nc(N)[nH]c2=O)NC1 [sepiapterin, 7,8-Dihydro-6-[(S)-2-hydroxy-1-oxopropyl]-pterin]	significant increase	significantly short	remarkable increase	significantly increased	remarkable increase
did not show an increase	C[C@H](O)[C@H](O)[C@H]1CNc2nc(N)[nH]c(=O)c2N1 [tetrahydrobiopterin, Tetrahydrobiopterin]	–	–	substantially no change; also recorded: slight increase	–	substantially no change; also recorded: slight increase

From patent US11173158B2, “Medicinal agent and beverage/food for preventing cerebral dysfunction and improving same” (PTC Therapeutics MP, Inc., priority 2010, dated 2021)
